Patent publication US20240327406A1, “POTASSIUM CHANNEL MODULATORS” (Autifony Therapeutics Limited, priority 2021, published 2024)
Read-outs that look alike come from different tables or passages of the source.

Columns and labels:
[1] = target: T1, human Kv3.1 channels (hKv3.1) (Homo sapiens, UniProt P48547); assay: Measurement of Kv3 channel modulation: Kv3.1 assay (IonWorks Quattro whole-cell electrophysiology); type: cell-based; conditions: for Kv3.1 max R %: normalised to maximum effect of reference compound (50 microM); for EC50: rounded to one decimal place, read-out: Kv3.1 pEC50 (converted)
T1 sequence (P48547 1-501 limits assumed): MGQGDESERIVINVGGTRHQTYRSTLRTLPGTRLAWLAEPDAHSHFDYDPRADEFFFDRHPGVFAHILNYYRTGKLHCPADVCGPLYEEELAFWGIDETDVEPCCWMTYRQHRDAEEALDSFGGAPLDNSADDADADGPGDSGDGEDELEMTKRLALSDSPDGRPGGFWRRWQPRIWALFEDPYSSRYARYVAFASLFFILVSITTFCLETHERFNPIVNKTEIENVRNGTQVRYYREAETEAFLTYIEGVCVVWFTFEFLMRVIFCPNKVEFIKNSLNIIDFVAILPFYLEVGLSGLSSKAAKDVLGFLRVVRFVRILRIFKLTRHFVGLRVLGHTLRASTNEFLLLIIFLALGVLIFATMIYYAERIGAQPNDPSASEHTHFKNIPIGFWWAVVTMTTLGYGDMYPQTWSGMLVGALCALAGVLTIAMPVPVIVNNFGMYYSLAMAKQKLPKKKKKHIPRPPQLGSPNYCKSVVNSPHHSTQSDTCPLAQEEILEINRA
Description: The ability of the compounds of the invention to modulate the voltage-gated potassium channel subtypes Kv3.4/Kv3.3/Kv3.2/Kv3.1 may be determined using the following assay. Analogous methods may be used to investigate the ability of the compounds of the invention to modulate other channel subtypes.
Human embryonic kidney (HEK)-hKv3.1 cell line is generated by transfecting HEK-293 cells with an expression vector with human Kv3.1 (NM_004976.4). Cells are cultured with MEM supplemented with 10% Heat-Inactivated FBS, 2 mM L-glutamine, 1% Penicillin-Streptomycin, and 0.6 mg/ml of Geneticin (G418). HEK-hKv3.1b cells were amplified in T175 cm2 flask at 37° C. with 5% CO2, using MEM amplification medium, containing the G418 selection antibiotic (0.6 mg/ml). Cells were detached every 3-4 days, using DPBS to wash twice the flask, then TrypLE to dislodge the cells, and re-plated at a density of 2-4×10^6 cells/flask.
The day of the experiment, cells are removed from the incubator and the culture medium removed. Cells are washed with 5 ml of Dulbecco's PBS (DPBS) calcium and magnesium free and detached by the addition of 3 ml Versene (Invitrogen, Italy) followed by a brief incubation at 37° C. for 5 minutes. The flask is tapped to dislodge cells and 10 ml of DPBS containing calcium and magnesium is added to prepare a cell suspension. The cell suspension is then placed into a 15 ml centrifuge tube and centrifuged for 2 min at 1200 rpm. After centrifugation, the supernatant is removed and the cell pellet re-suspended in 4 ml of DPBS containing calcium and magnesium using a 5 ml pipette to break up the pellet. Cell suspension volume is then corrected to give a cell concentration for the assay of approximately 3 million cells per ml.
Experiments are conducted at r.t. using IonWorks Quattro™ planar array electrophysiology technology (Molecular Devices Corp.) with PatchPlate™ PPC. Stimulation protocols and data acquisition are carried out using a microcomputer (Dell Pentium 4). Planar electrode hole resistances (Rp) are determined by applying a 10 mV voltage step across each well. These measurements are performed before cell addition. After cell addition and seal formation, a seal test is performed by applying a voltage step from −80 mV to −70 mV for 160 ms. Following this, amphotericin-B solution is added to the intracellular face of the electrode to achieve intracellular access. Cells are held at −70 mV. Leak subtraction is conducted in all experiments by applying 50 ms hyperpolarizing (10 mV) prepulses to evoke leak currents followed by a 20 ms period at the holding potential before test pulses.
For hKv3.2 and hKv3.1, assays from the holding potential of −70 mV, a first test pulse at −15 mV was applied for 100 ms and after 100 ms at −70 mV a second pulse at +40 mV was applied for 50 ms. Cells were then maintained for 100 ms at −100 mV and another pulse from […] to +40 mV (duration 50 ms) was applied to clamp later the voltage at −40 mV during 200 ms
The intracellular solution contains the following (in mM): K-gluconate 100, KCl 54, MgCl2 3.2, HEPES 5, adjusted to pH 7.3 with KOH. Amphotericin-B solution is prepared as 50 mg/ml stock solution in DMSO and diluted to a final working concentration of 0.1 mg/ml in intracellular solution.
Compounds of use in the invention (or reference compounds such as N-cyclohexyl-N-[(7,8-dimethyl-2-oxo-1,2-dihydro-3-quinolinyl)methyl]-N′-phenylurea) are dissolved in dimethylsulfoxide (DMSO) at a stock concentration of 10 mM. […] Each dilution (1 μL) is transferred to another compound plate and external solution containing 0.05% pluronic acid (66 μL) is added. 3.5 μL from each plate containing a compound of the invention is added and incubated with the cells during the IonWorks Quattro™ experiment. The final assay dilution is 200 and the final compound concentrations are in the range 50 μM to 50 nM.

[2] = Determination of in vivo pharmacokinetic parameters (blood and brain concentrations); conditions: male, rat; for Kp: brain and blood, oral dosing 1 mg/kg, read-out: AUC B/B (brain/blood) ratio; for Kp at 0.5 h: brain and heart blood, intravenous, 0.5 mg/kg, 0.5 h after dose administration, read-out: Brain/Heart Blood conc @0.5 hr
Description: Adult male rats (Charles River, Italy) are dosed with test compound orally at 1 mg/kg (5 ml/kg, in 5% v/v DMSO, 0.5% w/v HPMC in water) and intravenously at 0.5 mg/kg (2 ml/kg, in 5% v/v DMSO 40% w/v PEG400 in saline). After oral administration, blood samples are collected under deep Isofluorane anesthesia from the portal vein and heart of each rat (1 rat per time point). After intravenous administration, serial blood samples are collected from the lateral tail vein of each rat. Blood and brain samples are collected at a single timepoint of 0.5 h after dose administration for these animals. In all cases, blood samples are collected into potassium EDTA tubes.
A further group of rats (n=1 per test compound) receive a single intravenous administration of the PgP transport inhibitor, Elacridar (3 mg/kg) shortly before the oral administration of the test compound at 1 mg/kg, as above.
Blood and brain samples can be assayed for test compound concentration using a method based on protein precipitation with acetonitrile followed by HPLC/MS-MS analysis with an optimized analytical method.
The concentrations of test compound in blood (expressed as ng/ml) and brain (expressed as ng/g) at the different time points following either oral or intravenous dosing are analysed using a non-compartmental pharmacokinetic model using WinNonLin Professional version 4.1. The following parameters are derived:
Intravenous dosing: Maximum concentration over time (Cmax), integrated concentration over time (AUC), clearance (Clb), volume of distribution (Vss), half-life (t1/2) and Brain/Heart Blood conc @0.5 hr.
Oral dosing: Cmax, time of maximum concentration (Tmax), AUC, bioavailability (F %), fraction absorbed (Fa %), blood to brain ratio (AUC B/B), and Fold-change in AUC B/B in the presence of Elacridar.

[3] = Table 2, Example compounds, some compounds with two data sets (n given in cell)

| SMILES | Kv3.1 max R % ([1]; Table 2, Example compounds) [%] | EC50 [1, 3] [µM] | Kp [2] | Kp at 0.5 h [2] | EC50 ([1]; Table 3, Reference Examples and corresponding Examples) [µM] |
| --- | --- | --- | --- | --- | --- |
| O=c1[nH]c2cccnc2n1-c1cnc(Oc2cccc3c2C2(CC2)CO3)cn1 [Example 8, 3-(5-spiro[2H-benzofuran-3,1′-cyclopropane]-4-yloxypyrazin-2-yl)-1H-imidazo[4,5-b]pyridin-2-one] | 204 | 0.2 | < 0.1 | < 0.1 | – |
| O=c1[nH]c2cccnc2n1-c1cnc(Oc2cccc3c2C2(CC2)CO3)nc1 [Example 13, 3-(2-{2H-spiro[1-benzofuran-3,1′-cyclopropane]oxy}pyrimidin-5-yl)-1H,2H,3H-imidazo[4,5-b]pyridin-2-one] | 194 | 0.2 | 0.12 | 0.13 | – |
| Cc1ncc2[nH]c(=O)n(-c3ccc(Oc4cccc(OC(F)(F)F)c4)nc3)c2n1 [Example 24, 2-methyl-9-[6-[3-(trifluoromethoxy)phenoxy]-3-pyridyl]-7H-purin-8-one] | 144 | 1 | 0.29 | 0.33 | – |
| Cc1ncc2[nH]c(=O)n(-c3ccc(Oc4cccc5c4C4(CC4)CO5)nc3)c2n1 [Example 26, 2-methyl-9-(6-spiro[2H-benzofuran-3,1′-cyclopropane]-4-yloxy-3-pyridyl)-7H-purin-8-one] | 135 | 0.0501 | < 0.1 | < 0.1 | – |
| CC1(C)COc2cccc(Oc3ncc(-n4c(=O)[nH]c5cccnc54)cn3)c21 [Example 33, 3-[2-[(3,3-dimethyl-2H-benzofuran-4-yl)oxy]pyrimidin-5-yl]-1H-imidazo[4,5-b]pyridin-2-one] | 194 | 0.794 | 0.65 | 0.63 | 0.631 |
